# Assay results as given in patent publication US11618772B2 (Kineta Chronic Pain, LLC, priority 2014, dated 2023).
structure (smiles),measurement,value
"C[C@@H](O)[C@@H]1NC(=O)[C@@H]2CSSC[C@@H](C(=O)N[C@@H](Cc3ccc(O)cc3)C(N)=O)NC(=O)[C@H](CCC(N)=O)NC(=O)[C@H](Cc3ccc(O)c(I)c3)NC(=O)[C@H](CCCNC(N)=O)NC(=O)[C@H](CSSC[C@H](NC(=O)CN)C(=O)N2)NC(=O)[C@H](CCCNC(=N)N)NC(=O)[C@@H]2CCCN2C(=O)[C@H](CC(=O)O)NC1=O [CSP-4-NH2, GCCTDPRCX11X12QCY-amide]",stability in human plasma (Citrate),increased stability compared to CSP-4
